Data set [1] deals with T1, Mannose-6-phosphate isomerase (Homo sapiens, UniProt P34949).
T1 sequence (P34949 whole entry): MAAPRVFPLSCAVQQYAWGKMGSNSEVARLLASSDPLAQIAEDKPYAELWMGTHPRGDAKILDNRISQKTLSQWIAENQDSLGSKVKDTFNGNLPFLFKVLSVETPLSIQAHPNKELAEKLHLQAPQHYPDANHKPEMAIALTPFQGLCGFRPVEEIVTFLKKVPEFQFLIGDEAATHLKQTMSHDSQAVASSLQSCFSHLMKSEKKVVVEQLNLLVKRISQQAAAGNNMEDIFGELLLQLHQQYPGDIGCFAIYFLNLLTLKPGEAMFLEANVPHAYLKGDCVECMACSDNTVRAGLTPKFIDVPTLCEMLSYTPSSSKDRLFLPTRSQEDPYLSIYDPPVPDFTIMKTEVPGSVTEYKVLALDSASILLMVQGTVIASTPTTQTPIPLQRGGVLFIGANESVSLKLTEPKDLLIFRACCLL
The experiment in a line: MPI inhibition at elevated mannose 6-phosphate – biochemical, fluorescence intensity, high mannose 6-phosphate, primary screen (AID 1220).

Data set [2] deals with Large T antigen (Simian virus 40, UniProt P03070). In kind it is functional, Betapolyomavirus macacae.
The target of data set [3] is Induced myeloid leukemia cell differentiation protein Mcl-1 (Homo sapiens, UniProt Q07820). In kind it is functional.
Data set [4] deals with T2, Peroxisome proliferator-activated receptor gamma/Nuclear receptor coactivator 3 (Homo sapiens, UniProt P37231). In kind it is functional.
For data set [5], the target named is T3, Peroxisome proliferator-activated receptor gamma/Nuclear receptor coactivator 2 (Homo sapiens, UniProt P37231). In kind it is functional.
Data set [6] has as its target T4, Peroxisome proliferator-activated receptor gamma/Nuclear receptor coactivator 1 (Homo sapiens, UniProt P37231). Format: functional.
For data set [7], the target named is T5, Oxysterols receptor LXR-beta (Homo sapiens, UniProt P55055).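 Further: agonist activity at LXR measured by a cell-based luminescence readout across a dose range, run as a counterscreen for daf-12 agonists; HEK293 cells with Gal4-LXR fusion and GAL4-driven luciferase reporter; potency for activation of Gal4-LXR reporter so compounds are agonists.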
T5 sequence (P55055 whole entry): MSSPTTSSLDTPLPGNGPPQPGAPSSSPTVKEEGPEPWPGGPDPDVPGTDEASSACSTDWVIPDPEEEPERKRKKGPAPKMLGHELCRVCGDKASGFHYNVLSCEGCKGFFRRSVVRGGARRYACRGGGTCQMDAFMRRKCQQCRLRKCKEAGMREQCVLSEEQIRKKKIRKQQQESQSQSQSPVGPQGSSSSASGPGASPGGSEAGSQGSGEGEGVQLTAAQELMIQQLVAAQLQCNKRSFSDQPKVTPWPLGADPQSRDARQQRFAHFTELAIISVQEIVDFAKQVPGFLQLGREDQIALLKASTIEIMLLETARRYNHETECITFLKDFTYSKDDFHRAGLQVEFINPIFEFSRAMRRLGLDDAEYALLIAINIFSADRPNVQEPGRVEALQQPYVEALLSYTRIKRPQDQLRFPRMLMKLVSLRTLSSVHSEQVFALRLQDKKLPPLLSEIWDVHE
Format: functional, cell-based.

The target of data set [8] is Prothrombin (Homo sapiens, UniProt P00734). The experiment in a line: Thrombin 1536 HTS Dose Response Confirmation. [Related pubchem assays: 1046 (Thrombin 1536 HTS; hits were confirmed in this assay)]. In kind it is functional.
The target of data set [9] is Eukaryotic translation initiation factor 4E (Mus musculus, UniProt P63073). Briefly: blockers of eIF4G binding by eIF4E – biochemical, TR-FRET, dose response (AID 855).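 Further: potency for disrupting eIF4E binding to eIF4GI seen as loss of FRET.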 Format: functional. (In TR-FRET formats the signal depends on donor and acceptor labels being close together.)
For data set [10], the target named is DNA dC->dU-editing enzyme APOBEC-3G (Homo sapiens, UniProt Q9HC16). The experiment in a line: Dose Response confirmation of small molecule APOBEC3G DNA Deaminase Inhibitors via a fluorescence-based single-stranded DNA deaminase assay. [Related pubchem assays (depositor defined):AID493012, AID493028]. In kind it is functional.
Data set [11] addresses T6, Estrogen receptor (Homo sapiens, UniProt P03372).
T6 sequence (P03372 whole entry): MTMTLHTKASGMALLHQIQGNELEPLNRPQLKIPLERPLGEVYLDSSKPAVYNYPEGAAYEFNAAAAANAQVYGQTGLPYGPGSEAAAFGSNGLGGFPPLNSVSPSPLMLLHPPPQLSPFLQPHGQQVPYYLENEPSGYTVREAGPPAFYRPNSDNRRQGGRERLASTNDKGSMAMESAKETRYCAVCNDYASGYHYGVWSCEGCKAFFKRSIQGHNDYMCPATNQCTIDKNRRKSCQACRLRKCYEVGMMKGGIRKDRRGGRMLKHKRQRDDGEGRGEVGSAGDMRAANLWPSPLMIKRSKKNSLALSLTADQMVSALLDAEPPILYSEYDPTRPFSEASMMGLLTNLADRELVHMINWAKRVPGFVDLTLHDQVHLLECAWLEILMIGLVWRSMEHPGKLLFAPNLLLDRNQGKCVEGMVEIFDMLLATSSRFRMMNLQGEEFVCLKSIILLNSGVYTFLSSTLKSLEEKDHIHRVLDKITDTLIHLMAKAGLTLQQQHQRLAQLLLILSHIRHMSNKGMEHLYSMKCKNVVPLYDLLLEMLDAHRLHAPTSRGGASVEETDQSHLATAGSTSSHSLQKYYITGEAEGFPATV

Data set [12] concerns the target Voltage-dependent T-type calcium channel subunit alpha-1H (Homo sapiens, UniProt O95180). Format: functional.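 Further: channel activity triggered by adding a high calcium stimulation buffer.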
Data set [13] addresses T2, Peroxisome proliferator-activated receptor gamma/Nuclear receptor coactivator 3. The experiment in a line: TR-FRET dose response biochemical High Throughput Screening assay for agonists of the steroid receptor coactivator 3 (SRC-3) recruitment by the peroxisome proliferator-activated receptor gamma (PPAR gamma): non-selective agonists. [Related pubchem assays: 1301 (Confirmation screen.), 1048 (Primary screen.)]. Format: functional.

Data set [14] concerns the target T3, Peroxisome proliferator-activated receptor gamma/Nuclear receptor coactivator 2. The experiment in a line: TR-FRET dose response biochemical High Throughput Screening assay for agonists of the steroid receptor coactivator 2 (SRC-2) recruitment by the peroxisome proliferator-activated receptor gamma (PPAR gamma): non-selective agonists. [Related pubchem assays: 1297, 1032 ]. Format: functional.

For data set [15], the target named is T4, Peroxisome proliferator-activated receptor gamma/Nuclear receptor coactivator 1. Briefly: TR-FRET dose response biochemical High Throughput Screening assay for agonists of the steroid receptor coactivator 1 (SRC-1) recruitment by the peroxisome proliferator-activated receptor gamma (PPAR gamma): non-selective agonists. [Related pubchem assays (depositor defined):AID1300, AID1808, AID504735, AID631]. In kind it is protein assay.

The target in data set [16] is T7, CAAX prenyl protease 2 (Saccharomyces cerevisiae S288c, UniProt Q03530).
T7 sequence (Q03530 whole entry): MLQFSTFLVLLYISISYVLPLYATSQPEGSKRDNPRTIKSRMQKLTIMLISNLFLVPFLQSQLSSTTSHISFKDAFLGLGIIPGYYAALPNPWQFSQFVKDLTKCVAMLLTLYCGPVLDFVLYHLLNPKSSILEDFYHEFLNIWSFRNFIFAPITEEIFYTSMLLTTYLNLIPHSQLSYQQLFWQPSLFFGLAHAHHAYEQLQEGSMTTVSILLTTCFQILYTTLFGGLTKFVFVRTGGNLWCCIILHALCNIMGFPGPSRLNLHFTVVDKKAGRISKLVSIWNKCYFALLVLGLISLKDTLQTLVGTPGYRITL
In kind it is biochemical.

Data set [17] addresses Estrogen receptor beta (Homo sapiens, UniProt Q92731).
In data set [18] the target is Cytochrome P450 2C9 (Homo sapiens, UniProt P11712).
Data set [19] deals with T8, Alkaline phosphatase, tissue-nonspecific isozyme (Homo sapiens, UniProt P05186).
T8 sequence (P05186 whole entry): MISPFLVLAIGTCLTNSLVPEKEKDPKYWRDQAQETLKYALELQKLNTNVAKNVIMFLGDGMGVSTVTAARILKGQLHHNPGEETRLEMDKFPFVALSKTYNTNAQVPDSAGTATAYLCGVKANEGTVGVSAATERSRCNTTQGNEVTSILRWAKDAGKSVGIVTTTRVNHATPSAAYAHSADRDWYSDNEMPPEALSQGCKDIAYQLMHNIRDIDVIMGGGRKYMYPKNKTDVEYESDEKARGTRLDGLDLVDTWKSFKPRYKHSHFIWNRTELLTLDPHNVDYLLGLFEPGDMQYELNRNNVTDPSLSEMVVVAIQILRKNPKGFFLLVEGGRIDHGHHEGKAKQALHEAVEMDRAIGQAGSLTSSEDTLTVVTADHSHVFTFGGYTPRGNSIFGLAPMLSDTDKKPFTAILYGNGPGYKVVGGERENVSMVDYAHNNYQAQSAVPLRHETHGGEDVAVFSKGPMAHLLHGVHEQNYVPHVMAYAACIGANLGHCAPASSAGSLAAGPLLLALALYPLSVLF
Briefly: potency against alkaline phosphatase TNAP – biochemical, luminescent, dose response, SAR follow-up (AID 1056).

Data set [20] has as its target Glyceraldehyde-3-phosphate dehydrogenase (Homo sapiens, UniProt P04406).
Data set [21] deals with Cytochrome P450 2C19 (Homo sapiens, UniProt P33261). Briefly: Cytochrome panel assay with activity outcomes. Panel member name: p450-cyp2c19 Compounds with AC50 equal or less than 10 uM are considered active. In kind it is functional. To be noted: read-out: AC50.

Active and inactive are the calls of the source.

T3 sequence (P37231 whole entry): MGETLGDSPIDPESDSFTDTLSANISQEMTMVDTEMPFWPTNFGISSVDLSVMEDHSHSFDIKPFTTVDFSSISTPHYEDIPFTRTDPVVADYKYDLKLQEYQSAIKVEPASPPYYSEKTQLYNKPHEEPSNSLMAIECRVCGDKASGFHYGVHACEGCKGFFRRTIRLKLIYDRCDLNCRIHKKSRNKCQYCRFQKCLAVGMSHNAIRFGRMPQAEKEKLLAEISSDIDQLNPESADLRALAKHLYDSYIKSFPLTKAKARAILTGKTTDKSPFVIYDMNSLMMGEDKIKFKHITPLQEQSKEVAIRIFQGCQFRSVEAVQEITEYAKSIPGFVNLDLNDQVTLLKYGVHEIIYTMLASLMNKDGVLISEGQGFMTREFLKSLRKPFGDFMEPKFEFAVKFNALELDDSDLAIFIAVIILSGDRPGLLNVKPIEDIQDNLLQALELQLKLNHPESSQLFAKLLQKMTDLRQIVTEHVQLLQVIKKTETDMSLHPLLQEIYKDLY
T3 sequence (Q15596 whole entry, further chain): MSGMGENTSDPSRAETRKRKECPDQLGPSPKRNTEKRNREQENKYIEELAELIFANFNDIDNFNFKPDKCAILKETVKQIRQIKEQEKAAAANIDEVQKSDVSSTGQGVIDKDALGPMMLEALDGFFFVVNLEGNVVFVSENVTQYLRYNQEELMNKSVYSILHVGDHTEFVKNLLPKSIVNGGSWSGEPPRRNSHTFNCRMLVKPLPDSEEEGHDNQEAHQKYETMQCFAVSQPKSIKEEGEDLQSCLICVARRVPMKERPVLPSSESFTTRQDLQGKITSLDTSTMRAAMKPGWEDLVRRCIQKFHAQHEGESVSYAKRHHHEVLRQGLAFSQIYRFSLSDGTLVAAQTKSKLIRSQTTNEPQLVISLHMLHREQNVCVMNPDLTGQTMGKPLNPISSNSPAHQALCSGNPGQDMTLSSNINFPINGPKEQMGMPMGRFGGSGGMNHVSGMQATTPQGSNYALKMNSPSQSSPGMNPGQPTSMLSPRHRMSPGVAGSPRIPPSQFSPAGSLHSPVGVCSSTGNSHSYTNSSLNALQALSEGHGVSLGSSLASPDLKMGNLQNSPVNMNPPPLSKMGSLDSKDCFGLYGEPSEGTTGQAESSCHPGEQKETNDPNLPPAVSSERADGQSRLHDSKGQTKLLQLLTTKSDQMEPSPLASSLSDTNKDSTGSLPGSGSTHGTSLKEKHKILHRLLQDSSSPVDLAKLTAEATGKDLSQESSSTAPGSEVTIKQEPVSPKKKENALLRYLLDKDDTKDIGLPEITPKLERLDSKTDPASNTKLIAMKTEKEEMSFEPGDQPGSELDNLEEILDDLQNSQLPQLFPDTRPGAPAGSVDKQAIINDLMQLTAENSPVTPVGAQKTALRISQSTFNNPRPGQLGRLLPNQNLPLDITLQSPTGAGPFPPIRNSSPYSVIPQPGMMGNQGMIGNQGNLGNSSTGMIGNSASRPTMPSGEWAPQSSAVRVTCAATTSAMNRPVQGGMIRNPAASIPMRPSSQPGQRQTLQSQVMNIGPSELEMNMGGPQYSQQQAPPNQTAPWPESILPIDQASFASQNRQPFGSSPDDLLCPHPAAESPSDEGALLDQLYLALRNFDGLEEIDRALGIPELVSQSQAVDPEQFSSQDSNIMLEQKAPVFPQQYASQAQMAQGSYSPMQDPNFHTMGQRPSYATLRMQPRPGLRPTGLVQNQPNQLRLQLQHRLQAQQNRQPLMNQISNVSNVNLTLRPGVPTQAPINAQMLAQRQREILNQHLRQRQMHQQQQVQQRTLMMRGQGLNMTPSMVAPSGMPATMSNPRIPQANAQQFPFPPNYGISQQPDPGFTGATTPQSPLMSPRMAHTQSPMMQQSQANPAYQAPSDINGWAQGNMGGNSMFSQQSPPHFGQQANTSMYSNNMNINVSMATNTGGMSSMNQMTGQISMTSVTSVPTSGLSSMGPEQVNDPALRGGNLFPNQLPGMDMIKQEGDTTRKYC
T4 sequence (P37231 whole entry, the tested form may be a part): as the sequence (P37231 whole entry) above
T4 sequence (Q15788 whole entry, further chain, the tested form may be a part): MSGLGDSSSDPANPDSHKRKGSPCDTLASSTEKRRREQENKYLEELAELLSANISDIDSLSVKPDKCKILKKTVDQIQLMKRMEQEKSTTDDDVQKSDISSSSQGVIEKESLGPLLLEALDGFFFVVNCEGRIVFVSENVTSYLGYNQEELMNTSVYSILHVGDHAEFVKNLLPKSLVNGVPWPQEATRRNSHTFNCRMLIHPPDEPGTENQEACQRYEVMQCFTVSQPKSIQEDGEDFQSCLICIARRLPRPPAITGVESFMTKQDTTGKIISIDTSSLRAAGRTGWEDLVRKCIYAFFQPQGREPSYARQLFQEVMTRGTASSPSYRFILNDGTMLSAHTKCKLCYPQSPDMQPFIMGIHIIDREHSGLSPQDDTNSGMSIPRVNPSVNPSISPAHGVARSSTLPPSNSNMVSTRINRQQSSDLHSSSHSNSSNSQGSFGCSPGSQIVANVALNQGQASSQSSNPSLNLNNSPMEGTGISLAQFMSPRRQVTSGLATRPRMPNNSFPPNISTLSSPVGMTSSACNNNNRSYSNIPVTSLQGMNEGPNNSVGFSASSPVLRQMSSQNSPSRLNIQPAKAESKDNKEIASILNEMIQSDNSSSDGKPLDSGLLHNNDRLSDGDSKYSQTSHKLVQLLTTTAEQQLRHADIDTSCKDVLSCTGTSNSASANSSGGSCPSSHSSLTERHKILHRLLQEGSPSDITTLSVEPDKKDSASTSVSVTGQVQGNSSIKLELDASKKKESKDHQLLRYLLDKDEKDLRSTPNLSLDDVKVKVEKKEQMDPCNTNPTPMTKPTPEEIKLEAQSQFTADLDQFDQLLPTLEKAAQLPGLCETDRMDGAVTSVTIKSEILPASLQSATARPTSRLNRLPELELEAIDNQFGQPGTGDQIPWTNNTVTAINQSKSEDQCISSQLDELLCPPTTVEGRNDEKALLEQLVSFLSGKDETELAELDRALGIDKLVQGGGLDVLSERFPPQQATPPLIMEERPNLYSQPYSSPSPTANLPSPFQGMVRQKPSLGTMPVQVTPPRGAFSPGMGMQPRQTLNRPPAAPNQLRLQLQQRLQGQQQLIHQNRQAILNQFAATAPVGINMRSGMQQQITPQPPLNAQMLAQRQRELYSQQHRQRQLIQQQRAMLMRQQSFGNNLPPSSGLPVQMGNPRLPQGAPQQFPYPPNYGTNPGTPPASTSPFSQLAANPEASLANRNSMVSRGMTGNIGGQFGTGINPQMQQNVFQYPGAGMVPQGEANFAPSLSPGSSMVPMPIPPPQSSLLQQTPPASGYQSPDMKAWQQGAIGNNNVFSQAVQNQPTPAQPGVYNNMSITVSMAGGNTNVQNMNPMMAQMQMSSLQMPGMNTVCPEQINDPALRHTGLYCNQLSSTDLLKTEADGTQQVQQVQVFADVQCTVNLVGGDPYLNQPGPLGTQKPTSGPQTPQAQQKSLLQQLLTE
Sequence of Glyceraldehyde-3-phosphate dehydrogenase (P04406 whole entry): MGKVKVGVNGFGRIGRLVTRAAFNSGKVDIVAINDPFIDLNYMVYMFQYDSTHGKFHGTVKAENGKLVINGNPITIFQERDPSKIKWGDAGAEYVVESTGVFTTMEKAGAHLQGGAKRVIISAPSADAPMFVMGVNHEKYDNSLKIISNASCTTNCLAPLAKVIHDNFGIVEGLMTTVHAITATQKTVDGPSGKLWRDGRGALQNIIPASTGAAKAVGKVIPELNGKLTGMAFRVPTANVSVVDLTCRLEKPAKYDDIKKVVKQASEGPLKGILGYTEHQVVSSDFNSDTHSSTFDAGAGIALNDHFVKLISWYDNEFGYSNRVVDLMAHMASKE
Sequence of Large T antigen (P03070 whole entry): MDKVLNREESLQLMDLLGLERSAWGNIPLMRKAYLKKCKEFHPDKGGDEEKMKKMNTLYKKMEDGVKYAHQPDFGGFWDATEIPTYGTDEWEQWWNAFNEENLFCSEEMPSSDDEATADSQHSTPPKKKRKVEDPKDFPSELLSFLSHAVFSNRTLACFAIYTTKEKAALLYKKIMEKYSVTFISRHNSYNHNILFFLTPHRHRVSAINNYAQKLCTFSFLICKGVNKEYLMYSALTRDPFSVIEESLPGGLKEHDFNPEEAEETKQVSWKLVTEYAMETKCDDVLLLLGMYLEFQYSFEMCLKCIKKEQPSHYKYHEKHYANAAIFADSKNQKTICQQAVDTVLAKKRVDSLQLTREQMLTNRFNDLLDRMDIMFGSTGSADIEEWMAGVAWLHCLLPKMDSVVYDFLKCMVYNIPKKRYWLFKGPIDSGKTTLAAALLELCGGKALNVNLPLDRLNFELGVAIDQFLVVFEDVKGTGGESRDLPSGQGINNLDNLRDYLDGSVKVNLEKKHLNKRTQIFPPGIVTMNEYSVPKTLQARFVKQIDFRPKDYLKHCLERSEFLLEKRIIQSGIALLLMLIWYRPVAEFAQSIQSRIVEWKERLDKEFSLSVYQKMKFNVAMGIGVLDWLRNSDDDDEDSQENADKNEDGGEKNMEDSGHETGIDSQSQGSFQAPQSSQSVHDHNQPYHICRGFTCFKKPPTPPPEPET

In the case of `COc1ccc(N2CCC(CNC(=O)Nc3cccc(OC)c3)C2)cc1` (stereo not given), the 50% inhibitory concentration (IC50) (as a rule, the concentration that inhibits the measured activity by half) in [1] was > 50 µM (not active); in data set [2] it was 43.3 µM (active); in data set [3] it was 3.18 µM (not active).

With `COc1ccc(C(=O)C(C)(C)NO)cc1`, the EC50 in data set [4], in data set [5] and in [6] was > 79.4 µM (not active) throughout. For the molecule `CCCSc1nsc(NC(=O)CC)n1`, in data set [7], the EC50 (as a rule, the concentration that produces a half-maximal response) is > 67.5 µM (inactive). Still for that read-out and setting: in the case of `Cc1ccc(-c2onc3ccc(C(=O)O)cc23)cc1` it was > 67.6 µM (inactive). For `O=C(NCc1ccco1)c1cnc2ccc(S(=O)(=O)N3CCOCC3)cc2c1O`, in data set [8], the half-inhibitory concentration (IC50) was 0.943 µM (active). `Clc1ccc(Cl)c(-c2nn3c(COc4ccccc4)nnc3s2)c1`: the figures for the IC50 in data set [9] and in [10] were > 64 µM (inactive) and 37 µM (active), respectively. For `COc1ccc(-c2cc(-c3cccs3)c(C#N)c(SCC(=O)NCc3ccco3)n2)cc1`, the half-maximal inhibitory concentration (IC50) in data set [11] is recorded as > 50 µM (not active).

For the molecule `CCCn1cc(SCC(=O)Nc2ccc3c(c2)OCO3)c2ccccc21`, the concentration for a half-maximal effect (EC50) in [12] was 5.11 µM (active). For the molecule `O=C(Nc1ccccc1Cl)C1CCN(Cc2cnn(-c3ccccc3)c2-n2cccc2)CC1`, the concentration for a half-maximal effect (EC50) in [12] is 2.74 µM (active). `COc1cc(OC)c(C2CC(=O)N3CN(C)CSC3=C2C#N)cc1OC` (stereo not given): the IC50 in data set [1] was 23.1 µM (active); in data set [2], 61.1 µM (active). Turning to `Cn1c(=O)cc(SCC(=O)NCCCN2CCN(c3ccccc3F)CC2)c2ccccc21`, the EC50 in data set [13] is > 79.4 µM (not active); in data set [14] it was > 79.4 µM (not active); in data set [15] it was > 79.4 µM (inactive). For the molecule `Cc1cc(C(=O)CSc2ncccn2)c(C)n1Cc1ccco1`, the EC50 in data set [7] is > 67.5 µM (inactive). With `Cc1cc2cc(CCNC(=O)c3c(-c4ccccc4Cl)noc3C)c(=O)[nH]c2cc1C`, the EC50 in data set [12] is 4.77 µM (active). With `CN(C)CCN(C(=O)c1ccc2ccccc2c1)c1nc2ccc(F)cc2s1`, the half-maximal activity concentration (AC50) (usually the concentration at which the activity in the assay is half-maximal) in data set [16] is 6.44 µM (active). Turning to `CCOc1ccc(C(=O)CCN2CCCCC2)cc1`, in [17], the IC50 is > 50 µM (not active). As to `O=C(CSc1cccc(C(F)(F)F)c1)NC(=O)NCc1ccco1`, the IC50 in [11] is on record as > 50 µM (not active). Further, the EC50 in [12] is 1.67 µM (active).

As for `CCOC(=O)c1c(NC(=O)CSc2nnc(CNc3ccc(F)cc3)o2)sc(C(C)=O)c1C`, the values for the EC50 in data set [4], in data set [5] and in data set [6] were > 79.4 µM (not active), 42.5 µM (not active) and 54.3 µM (not active), respectively. With `CC(C(=O)NCc1ccc2c(c1)OCO2)N1c2cccc3cccc(c23)S1(=O)=O` (stereo not given), the concentration for a half-maximal effect (EC50) in data set [12] was 9.35 µM (active). In addition, the AC50 entry in data set [18] is “inconclusive”. Consider `O=C(O)c1cc(-c2ccc(O)cc2)n[nH]1`, for which the results for the concentration for half-maximal inhibition (IC50) in [19] and in data set [20] were 14 µM (active) and > 100 µM (not active), respectively. As to `O=C(Oc1ccc2c(c1)OCC2=O)c1ccccc1`, the IC50 in data set [17] is listed as > 50 µM (not active). Turning to `COc1ccc(-c2cc(C(=O)O)n[nH]2)cc1`, the half-inhibitory concentration (IC50) in [19] was 6.72 µM (active); in data set [20] it was > 100 µM (not active). For `COc1cccc(Cc2nnc(N3C(=O)[C@H]4CC=CC[C@H]4C3=O)[nH]2)c1`, in that order: 2.48 µM (active) and > 100 µM (not active). For the molecule `O=C(NCc1ccccn1)c1cn(-c2ccccc2)nc1-c1ccc(Cl)cc1`, in data set [8], the IC50 is on record as > 50 µM (not active). Take `COc1cccc(C(=O)n2c(SC)nc3cc4c(cc32)OCCO4)c1`: the half-maximal inhibitory concentration (IC50) in [8] is 0.0235 µM (active). Also, in data set [21], the AC50 was 35.5 µM (inconclusive). Consider `C(=N\c1cccc2c(/N=C/c3ccco3)cccc12)/c1ccco1`, for which the IC50 in data set [1] is > 50 µM (not active). Consider `COc1cccc(/C=c2/s/c(=C(\C#N)C(=O)N3CCOCC3)n(-c3ccccc3)c2=O)c1`, for which the EC50 in data set [4], in data set [5] and in data set [6] was > 79.4 µM (not active) each time. For the molecule `CC(CO)(CO)NCc1ccc(-c2ccccc2)cc1`, the IC50 in [8] is > 50 µM (not active).
